From patent publication US8748496B2, “Methods of treatment of hyperuricemia and associated disease states” (Elan Pharmaceuticals, Inc., priority 2008, dated 2014)
Entries after “also recorded” stand apart in the source; their conditions may differ.

System: serum uric acid levels
Assay: Phase 1 open-label multiple dosing study, serum uric acid in healthy adult subjects
Type: in vivo, human
Conditions: 2000 mg BID oral 10 days; for uric acid, Mean: N=8
Experimental: A Phase 1 single site, open-label multiple dosing study evaluating a scyllo-inositol formulation was conducted in healthy adult subjects. Approximately 8 healthy male subjects received 2000 mg of scyllo-inositol twice daily (4-500 mg tablets orally administered twice a day) for 10 days. Blood samples were collected 12 hours prior to the first dose (day 0) and on days 6, 14, and 21. Scyllo-inositol 500 mg capsules were BSE/TSE-free soft gelatin, white, opaque capsules and no excipients were used in the finished product. Capsules were supplied in 60-mL, oblong, white pharmaceutical high density polyethylene (HDPE) bottles with white caps. Each 60-mL bottle contained 30 capsules of 500 mg strength scyllo-inositol.

[1] = Baseline (Day 0, before first dose)

O[C@H]1[C@H](O)[C@@H](O)[C@H](O)[C@@H](O)[C@@H]1O [scyllo-inositol, 1,2,3,4,5,6-cyclohexanehexyl, (1alpha,2beta,3alpha,4beta,5alpha,6beta)]
uric acid, Max [1]: 375 micromole per liter
uric acid, Median [1]: 300.4 micromole per liter
uric acid, Min [1]: 256 micromole per liter
uric acid, Mean [1]: 305.6 micromole per liter
uric acid, Max (Day 6): 250 micromole per liter
uric acid, Max Change from Baseline (Day 6): −12 micromole per liter
uric acid, Mean Change from Baseline (Day 6): −88.8 micromole per liter
uric acid, Median (Day 6): 226.0 micromole per liter
uric acid, Median Change from Baseline (Day 6): −72.6 micromole per liter
uric acid, Min (Day 6): 155 micromole per liter
uric acid, Min Change from Baseline (Day 6): −172 micromole per liter
uric acid, Mean (Day 6): 216.8 micromole per liter
uric acid, Max (Day 14): 274 micromole per liter
uric acid, Max Change from Baseline (Day 14): −12 micromole per liter
uric acid, Mean Change from Baseline (Day 14): −70.6 micromole per liter
uric acid, Median (Day 14): 237.9 micromole per liter
uric acid, Median Change from Baseline (Day 14): −74.4 micromole per liter
uric acid, Min (Day 14): 196 micromole per liter
uric acid, Min Change from Baseline (Day 14): −131 micromole per liter
uric acid, Mean (Day 14): 243.9 micromole per liter
uric acid, Max (Day 21): 333 micromole per liter
uric acid, Max Change from Baseline (Day 21): 65 micromole per liter
uric acid, Mean Change from Baseline (Day 21): −16.4 micromole per liter
uric acid, Median (Day 21): 291.5 micromole per liter
uric acid, Median Change from Baseline (Day 21): −23.8 micromole per liter
uric acid, Min (Day 21): 250 micromole per liter
uric acid, Min Change from Baseline (Day 21): −83 micromole per liter
uric acid after the end of treatment (Day 21, last follow-up visit): returned to Day 0 values by Day 21
uric acid, Mean (Day 21): 289.2 micromole per liter
serum uric acid levels following the start of treatment (all 8 subjects): decreased in all subjects; also recorded: a decrease in serum uric acid levels was observed in all subjects
mean uric acid levels versus normal range (during the study): remained within the normal range
